Assays:
Type in all cases: cell-based, Influenza virus A/Udorn/72
A/M2-V27A = A/M2-V27A (Influenza A virus, UniProt P0DOF5, V27A); conditions: for inhibition of the mutant: 100 µM
A/M2-V27A/L38F = A/M2-V27A/L38F (Influenza A virus, UniProt P0DOF5, L38F/V27A)
A/M2-L26F = A/M2-L26F (Influenza A virus, UniProt P0DOF5, L26F)
A/M2-V27G = A/M2-V27G (Influenza A virus, UniProt P0DOF5, V27G)
A/M2-A30T = A/M2-A30T (Influenza A virus, UniProt P0DOF5, A30T)
A/M2-S31N = A/M2-S31N (Influenza A virus, UniProt P0DOF5, S31N)
A/M2-G34E = A/M2-G34E (Influenza A virus, UniProt P0DOF5, G34E)

Row | SMILES | inhibition of the mutant (A/M2-V27A) | sensitivity of the double mutant channel (A/M2-V27A/L38F) | % remaining activity after application of 100 μM compound (A/M2-L26F) | IC50 (A/M2-L26F) | % remaining activity after application of 100 μM compound (A/M2-V27A) | IC50 (A/M2-V27A) | % remaining activity after application of 100 μM compound (A/M2-V27G) | % remaining activity after application of 100 μM compound (A/M2-A30T) | % remaining activity after application of 100 μM compound (A/M2-S31N) | IC50 (A/M2-S31N) | % remaining activity after application of 100 μM compound (A/M2-G34E) | inhibition of the mutant (A/M2-S31N)
1 | NC12CC3CC(CC(C3)C1)C2 [Amantadine, amantadine] | less than 10% | not sensitive | – | – | – | – | – | – | – | – | – | –
2 | C1CCC2(CC1)CCN(C1=NCCN1)CC2 [BL-1743, 2-[3-azaspiro([5],[5])undecanol]-2-imidazoline] | less than 10% | not sensitive | 89.2±4.8% | > 10 mM | 97.4±1.8% | > 10 mM | 82.9±9.3% | 102±2.3% | 100±0.67% | > 10 mM | 89.8±6.9% | –
3 | NC1CCC2(CCCCC2)CC1 [Compound 8, spiro[5.5]undecan-3-amine] | – | – | 32.4±3.3% | – | 46.6±6.6% | – | 87.9±6.1% | 98.1±7.0% | 99.1±0.9% | – | – | little inhibition

Source: paper PMC2794939 (Biochemistry, 2009)
